Results taken from publication PMC12661400, “Oral bioavailable ITRI-148 degrades androgen receptor variants and overcomes antiandrogen resistance in advanced prostate cancer” (Neoplasia (New York, N.Y.), 2025).
Read-outs that look alike come from different tables or passages of the source.

Legend:
[1] = Repeated-dose toxicity study: serum clinical chemistry; assay type: in vivo, Sprague-Dawley rats; settings: rat serum
Experimental: (§1) Repeated-dose toxicity and toxicokinetic studies
(§2) Repeated-dose oral toxicity study and toxicokinetic (TK) profiling was conducted in Sprague-Dawley rats. ITRI-148 was administered once daily using oral gavage at doses of 100, 300, 600, and 1000 mg/kg/day for 7 consecutive days, followed by a 7-day recovery period. Each dose group comprised 3 animals designated for toxicokinetic (TK) analysis and 6 animals for dose-range finding (DRF) evaluation. Clinical observations, body weights, and food consumption were monitored daily throughout the dosing and recovery periods. […]
(§3) All samples were analyzed in duplicate. Hematology and serum clinical chemistry analyses were performed on Day 7 (end of dosing) and Day 14 (end of recovery). […]
(§4) All procedures were conducted in compliance with institutional animal care and use guidelines. […]
(§5) Targeting androgen receptor and the variants by an orally bioavailable
(§6) Proteolysis Targeting Chimeras compound in castration resistant prostate cancer

[2] = Toxicokinetic profiling in rats; assay type: in vivo; settings: Sprague-Dawley, rat, plasma, po; for AUC: read-out: AUC24
Experimental: as §1
Repeated-dose oral toxicity study and toxicokinetic (TK) profiling was conducted in Sprague-Dawley rats. ITRI-148 was administered once daily using oral gavage at doses of 100, 300, 600, and 1000 mg/kg/day for 7 consecutive days, followed by a 7-day recovery period. Each dose group comprised 3 animals designated for toxicokinetic (TK) analysis and 6 animals for dose-range finding (DRF) evaluation. Clinical observations, body weights, and food consumption were monitored daily throughout the dosing and recovery periods. After the first (Day 0) and last (Day 6) dosing, serial blood samples were collected at the pose-dose time points of 0.5, 1, 2, 4, 7, 24, 48 and 72 hours for TK profiling analysis. Plasma concentrations of ITRI-148 were quantified using a validated LC-MS/MS method. Analysis was performed using a Sciex QTrap 4000 mass spectrometer coupled with a Shimadzu LC system. The chromatographic separation was achieved on a C18 reverse-phase column with a gradient elution of acetonitrile and 0.1% formic acid in water. The lower limit of quantification (LLOQ) […]
was 5 ng/mL. All samples were analyzed in duplicate. […]
as §4, §5, §6

[3] = Repeated-dose toxicity study: hematology; assay type: in vivo, Sprague-Dawley rats; settings: rats
Experimental: as §1, §2, §3, §4, §5, §6

[4] = PO 100 mg/kg/day 7 days, Day 14 (recovery)
[5] = PO 300 mg/kg/day 7 days, Day 14 (recovery)
[6] = PO 600 mg/kg/day 7 days, Day 14 (recovery)
[7] = PO 1000 mg/kg/day 7 days, Day 7
[8] = PO 1000 mg/kg/day 7 days, Day 14 (recovery)
[9] = 100 mg/kg, 7-times repeated dosing 100 mg/kg
[10] = 100 mg/kg, single dosing 100 mg/kg
[11] = 300 mg/kg, 7-times repeated dosing 300 mg/kg
[12] = 300 mg/kg, single dosing 300 mg/kg
[13] = 600 mg/kg, 7-times repeated dosing 600 mg/kg
[14] = 600 mg/kg, single dosing 600 mg/kg
[15] = 1000 mg/kg, 7-times repeated dosing 1000 mg/kg
[16] = 1000 mg/kg, single dosing 1000 mg/kg

## O=C1CCC(N2C(=O)c3cccc(NCC(=O)N4CCC(N5CCC(C#Cc6ccc(C7CCN(C8=Nn9c(nnc9C(F)(F)F)CC8)CC7)cc6)CC5)CC4)c3C2=O)C(=O)N1 (stereo not shown) [ITRI-148]
[1]; PO 100 mg/kg/day 7 days, Day 7
  ALT: 102.3 ± 40.6 U/L
  AST: 188.7 ± 59 U/L
  BUN: 17.73 ± 2.8 mg/dL
  CRE: 0.63 ± 0.06 mg/dL
[1]; [4]
  ALT: 84.3 ± 31.6 U/L
  AST: 136.7 ± 10.4 U/L
  BUN: 13.23 ± 1.12 mg/dL
  CRE: 0.4 ± 0.1 mg/dL
[1]; PO 300 mg/kg/day 7 days, Day 7
  ALT: 85.3 ± 10 U/L
  AST: 177 ± 37.4 U/L
  BUN: 20.53 ± 2.06 mg/dL
  CRE: 0.63 ± 0.06 mg/dL
[1]; [5]
  ALT: 60.7 ± 7.1 U/L
  AST: 122 ± 5.3 U/L
  BUN: 10.9 ± 1.13 mg/dL
  CRE: 0.33 ± 0.06 mg/dL
[1]; PO 600 mg/kg/day 7 days, Day 7
  ALT: 76.7 ± 2.1 U/L
  AST: 196 ± 66 U/L
  BUN: 21.8 ± 1.81 mg/dL
  CRE: 0.57 ± 0.06 mg/dL
[1]; [6]
  ALT: 69.3 ± 11.5 U/L
  AST: 170 ± 41.7 U/L
  BUN: 13.03 ± 0.83 mg/dL
  CRE: 0.47 ± 0.06 mg/dL
[1]; [7]
  ALT: 68 ± 15.4 U/L
  AST: 132.7 ± 14.5 U/L
  BUN: 16.77 ± 2.32 mg/dL
  CRE: 0.57 ± 0.06 mg/dL
[1]; [8]
  ALT: 94.3 ± 41.2 U/L
  AST: 150.3 ± 43 U/L
  BUN: 16.23 ± 4.71 mg/dL
  CRE: 0.37 ± 0.06 mg/dL
[2]; [9]
  AUC(0-t): 8750 ng·h/mL
  Cmax: 561 ± 62.1 ng/mL
  AUC: 8330 ng·h/mL
[2]; [10]
  AUC(0-t): 9300 ng·h/mL
  Cmax: 466 ± 13.6 ng/mL
  AUC: 7670 ng·h/mL
[2]; [11]
  AUC(0-t): 20500 ng·h/mL
  Cmax: 1050 ng/mL
  AUC: 17000 ng·h/mL
[2]; [12]
  AUC(0-t): 20100 ng·h/mL
  Cmax: 659 ± 184 ng/mL
  AUC: 13000 ng·h/mL
[2]; [13]
  AUC(0-t): 35200 ng·h/mL
  Cmax: 1440 ng/mL
  AUC: 25200 ng·h/mL
[2]; [14]
  AUC(0-t): 27100 ng·h/mL
  Cmax: 914 ± 296 ng/mL
  AUC: 15100 ng·h/mL
[2]; [15]
  AUC(0-t): 56000 ng·h/mL
  Cmax: 1910 ng/mL
  AUC: 36600 ng·h/mL
[2]; [16]
  AUC(0-t): 40400 ng·h/mL
  Cmax: 1000 ng/mL
  AUC: 17400 ng·h/mL
[3]; PO 100 mg/kg/day 7 days, Day 7
  HGB: 20.3 ± 0.2 g/dL
  PLT: 915 ± 368 x103 cells/µL
  RBC: 7.51 ± 0.13 x106 cells/µL
  WBC: 8.72 ± 2.37 x103 cells/µL
[3]; [4]
  HGB: 21.9 ± 3.2 g/dL
  PLT: 1049 ± 231 x103 cells/µL
  RBC: 8.18 ± 1.17 x106 cells/µL
  WBC: 7.52 ± 5.51 x103 cells/µL
[3]; PO 300 mg/kg/day 7 days, Day 7
  HGB: 20 ± 1.4 g/dL
  PLT: 956 ± 108 x103 cells/µL
  RBC: 7.15 ± 0.4 x106 cells/µL
  WBC: 8.19 ± 2.89 x103 cells/µL
[3]; [5]
  HGB: 24.1 ± 0.4 g/dL
  PLT: 1128 ± 236 x103 cells/µL
  RBC: 8.91 ± 0.17 x106 cells/µL
  WBC: 9.56 ± 1.57 x103 cells/µL
[3]; PO 600 mg/kg/day 7 days, Day 7
  HGB: 20.6 ± 1.9 g/dL
  PLT: 986 ± 252 x103 cells/µL
  RBC: 7.51 ± 0.53 x106 cells/µL
  WBC: 8.68 ± 4.58 x103 cells/µL
[3]; [6]
  HGB: 21.6 ± 0.8 g/dL
  PLT: 1022 ± 446 x103 cells/µL
  RBC: 7.87 ± 0.45 x106 cells/µL
  WBC: 5.27 ± 2.39 x103 cells/µL
[3]; [7]
  HGB: 20.7 ± 1.3 g/dL
  PLT: 892 ± 66 x103 cells/µL
  RBC: 7.52 ± 0.31 x106 cells/µL
  WBC: 7.48 ± 2.72 x103 cells/µL
[3]; [8]
  HGB: 21.6 ± 1 g/dL
  PLT: 1140 ± 222 x103 cells/µL
  RBC: 8.33 ± 0.35 x106 cells/µL
  WBC: 8.28 ± 0.31 x103 cells/µL
